Columns and labels:
Assay type in all cases: in vivo
[1] = system: redroot pigweed (Amaranthus retroflexus, AMARE); assay: Pre-emerge test, greenhouse herbicide activity screening; details: pre-emerge, phytotoxicity rating 0-100 at 14 days after application
How it was run: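 Sandy loam pots; pre-emerge: sown 1 d pre-spray, surface-watered after, then bottom-watered. Post-emerge: sown 8–21 d before, 2–3 leaf stage, + 0.25% v/v NIS, bottom-watered. Acetone, 187 l/ha track spray, 15–1000 g ai/ha. 0–100 injury score, day 14.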

[2] = system: upland rice (Oryza sp., var. Tebonnet, RICE); assay: Post-emerge test, crop safety; details: post-emerge, crop damage rating 0-100 at 14 days after application
How it was run: (§1)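 Visual ratings on a 0-100 scale (0 no damage, 100 all plants dead) were taken at 14 days after treatment. Rates of 15-1000 g ai/ha in acetone, 187 l/ha, were sprayed onto soil one day after planting (pre-emerge) or onto 2-3 leaf plants with 0.25% v/v surfactant (post-emerge).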

[3] = system: field corn (Zea mays L., var. Dekalb 535, CORN); assay: Post-emerge test, crop safety; details: post-emerge, crop damage rating 0-100 at 14 days after application
How it was run: as §1

[4] = system: sicklepod (Cassia obtusifolia, CASOB); assay: Pre-emerge test, greenhouse herbicide activity screening; details: pre-emerge, phytotoxicity rating 0-100 at 14 days after application
How it was run: as §1

[5] = system: large crabgrass (Digitaria sanguinalis, DIGSA); assay: as above; details: pre-emerge, phytotoxicity rating 0-100 at 14 days after application
How it was run: as §1

[6] = system: ivyleaf morningglory (Ipomoea hederacea, IPOHE); assay: as above; details: pre-emerge, phytotoxicity rating 0-100 at 14 days after application
How it was run: as §1

[7] = system: johnsongrass (Sorghum halepense, SORHA); assay: as above; details: pre-emerge, phytotoxicity rating 0-100 at 14 days after application
How it was run: as §1

[8] = system: velvetleaf (Abutilon theophrasti, ABUTH); assay: as above; details: pre-emerge, phytotoxicity rating 0-100 at 14 days after application
How it was run: as §1

[9] = system: barnyardgrass (Echinochloa crus-galli, ECHCG); assay: as above; details: pre-emerge, phytotoxicity rating 0-100 at 14 days after application
How it was run: as §1

[10] = system: green foxtail (Setaria viridis, SETVI); assay: as above; details: pre-emerge, phytotoxicity rating 0-100 at 14 days after application
How it was run: as §1

[11] = system: lambsquarters (Chenopodium album, CHEAL); assay: as above; details: pre-emerge, phytotoxicity rating 0-100 at 14 days after application
How it was run: as §1

[12] = system: sicklepod (Cassia obtusifolia, CASOB); assay: Post-emerge test, greenhouse herbicide activity screening; details: post-emerge, phytotoxicity rating 0-100 at 14 days after application
How it was run: (§2)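 Applied at 15–1000 g ai/ha from acetone in 187 l/ha spray volume. Post-emergence applications included 0.25% v/v non-ionic surfactant and reached plants sown 8–21 days before. Pre-emergence applications were incorporated by surface watering. Efficacy or crop damage was rated on a 0–100 scale after 14 days.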

[13] = system: large crabgrass (Digitaria sanguinalis, DIGSA); assay: as above; details: post-emerge, phytotoxicity rating 0-100 at 14 days after application
How it was run: as §2

[14] = system: ivyleaf morningglory (Ipomoea hederacea, IPOHE); assay: as above; details: post-emerge, phytotoxicity rating 0-100 at 14 days after application
How it was run: as §2

[15] = system: johnsongrass (Sorghum halepense, SORHA); assay: as above; details: post-emerge, phytotoxicity rating 0-100 at 14 days after application
How it was run: as §2

[16] = system: velvetleaf (Abutilon theophrasti, ABUTH); assay: as above; details: post-emerge, phytotoxicity rating 0-100 at 14 days after application
How it was run: as §2

[17] = system: redroot pigweed (Amaranthus retroflexus, AMARE); assay: as above; details: post-emerge, phytotoxicity rating 0-100 at 14 days after application
How it was run: as §2

[18] = system: barnyardgrass (Echinochloa crus-galli, ECHCG); assay: as above; details: post-emerge, phytotoxicity rating 0-100 at 14 days after application
How it was run: as §2

[19] = system: green foxtail (Setaria viridis, SETVI); assay: as above; details: post-emerge, phytotoxicity rating 0-100 at 14 days after application
How it was run: as §2

[20] = system: lambsquarters (Chenopodium album, CHEAL); assay: as above; details: post-emerge, phytotoxicity rating 0-100 at 14 days after application
How it was run: as §2

[21] = system: upland rice (Oryza sp., var. Tebonnet, RICE); assay: Pre-emerge test, crop safety; details: crop damage, pre-emerge, phytotoxicity rating 0-100 at 14 days after application
How it was run: (§3)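 Compounds in acetone were track-sprayed at 15-1000 g ai/ha (187 l/ha) on sandy loam pots: pre-emerge one day after seeding, post-emerge at 2-3 leaf stage with 0.25% v/v non-ionic surfactant. Phytotoxicity was rated 14 days later on a 0 (no damage) to 100 (complete death) scale.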

[22] = system: field corn (Zea mays L., var. Dekalb 535, CORN); assay: Pre-emerge test, crop safety; details: crop damage, pre-emerge, phytotoxicity rating 0-100 at 14 days after application
How it was run: as §3

## Cc1c(Cl)cc(F)c(-n2c(=O)cc(C(F)(F)F)n(C)c2=O)c1NC(=O)OCc1ccc(Cl)cc1Cl [4-62]
[1]; rate 63 g ai/ha
  Pre-emerge Herbicidal Activity AMARE: 100
[1]; rate 250 g ai/ha
  Pre-emerge Herbicidal Activity AMARE: 100
[2]; 63 g ai/ha
  Post-emerge Herbicidal Activity RICE: 30
[2]; 250 g ai/ha
  Post-emerge Herbicidal Activity RICE: 30
[3]; 63 g ai/ha
  Post-emerge Herbicidal Activity CORN: 30
[3]; 250 g ai/ha
  Post-emerge Herbicidal Activity CORN: 45
[4]; rate 63 g ai/ha
  Pre-emerge Herbicidal Activity CASOB: 50
[4]; rate 250 g ai/ha
  Pre-emerge Herbicidal Activity CASOB: 100
[5]; rate 63 g ai/ha
  Pre-emerge Herbicidal Activity DIGSA: 50
[5]; rate 250 g ai/ha
  Pre-emerge Herbicidal Activity DIGSA: 90
[6]; rate 63 g ai/ha
  Pre-emerge Herbicidal Activity IPOHE: 60
[6]; rate 250 g ai/ha
  Pre-emerge Herbicidal Activity IPOHE: 30
[7]; rate 63 g ai/ha
  Pre-emerge Herbicidal Activity SORHA: 10
[7]; rate 250 g ai/ha
  Pre-emerge Herbicidal Activity SORHA: 50
[8]; rate 63 g ai/ha
  Pre-emerge Herbicidal Activity ABUTH: 100
[8]; rate 250 g ai/ha
  Pre-emerge Herbicidal Activity ABUTH: 100
[9]; rate 63 g ai/ha
  Pre-emerge Herbicidal Activity ECHCG: 10
[9]; rate 250 g ai/ha
  Pre-emerge Herbicidal Activity ECHCG: 60
[10]; rate 63 g ai/ha
  Pre-emerge Herbicidal Activity SETVI: 80
[10]; rate 250 g ai/ha
  Pre-emerge Herbicidal Activity SETVI: 100
[11]; rate 63 g ai/ha
  Pre-emerge Herbicidal Activity CHEAL: 100
[11]; rate 250 g ai/ha
  Pre-emerge Herbicidal Activity CHEAL: 100
[12]; 63 g ai/ha
  Post-emerge Herbicidal Activity CASOB: 90
[12]; 250 g ai/ha
  Post-emerge Herbicidal Activity CASOB: 100
[13]; 63 g ai/ha
  Post-emerge Herbicidal Activity DIGSA: 10
[13]; 250 g ai/ha
  Post-emerge Herbicidal Activity DIGSA: 50
[14]; 63 g ai/ha
  Post-emerge Herbicidal Activity IPOHE: 100
[14]; 250 g ai/ha
  Post-emerge Herbicidal Activity IPOHE: 100
[15]; 63 g ai/ha
  Post-emerge Herbicidal Activity SORHA: 30
[15]; 250 g ai/ha
  Post-emerge Herbicidal Activity SORHA: 30
[16]; 63 g ai/ha
  Post-emerge Herbicidal Activity ABUTH: 100
[16]; 250 g ai/ha
  Post-emerge Herbicidal Activity ABUTH: 100
[17]; 63 g ai/ha
  Post-emerge Herbicidal Activity AMARE: 100
[17]; 250 g ai/ha
  Post-emerge Herbicidal Activity AMARE: 100
[18]; 63 g ai/ha
  Post-emerge Herbicidal Activity ECHCG: 20
[18]; 250 g ai/ha
  Post-emerge Herbicidal Activity ECHCG: 40
[19]; 63 g ai/ha
  Post-emerge Herbicidal Activity SETVI: 60
[19]; 250 g ai/ha
  Post-emerge Herbicidal Activity SETVI: 80
[20]; 63 g ai/ha
  Post-emerge Herbicidal Activity CHEAL: 100
[20]; 250 g ai/ha
  Post-emerge Herbicidal Activity CHEAL: 100
[21]; rate 63 g ai/ha
  Pre-emerge Herbicidal Activity RICE: 10
[21]; rate 250 g ai/ha
  Pre-emerge Herbicidal Activity RICE: 70
[22]; rate 63 g ai/ha
  Pre-emerge Herbicidal Activity CORN: 0
[22]; rate 250 g ai/ha
  Pre-emerge Herbicidal Activity CORN: 10

Reference: US6355799B1, “Substituted benzene compounds, process for their preparation, and herbicidal and defoliant compositions containing them” (ISK Americas Incorporated, priority 1997, dated 2002)
